Legend:
Pim-1 = Pim-1 (Homo sapiens (Human), UniProt P11309); assay: Pim enzyme assay (HTRF, 96-well), Pim-1; assay type: biochemical; conditions: full length recombinant Pim-1, biotinylated-BAD (S112) peptide, 10-point curve, 2 h RT, read-out: Pim-1 IC50 IP
Description: (§1) These cDNAs were used as templates in PCR reactions to produce full-length DNA clones of the PIMs. […] PCR products were digested with BclI and EcoRI for Pim-1 and BamHI and EcoRI for Pim-2 and ligated into a modified baculovirus transfer vector (pFastBac1) cleaved with BamHI and EcoRI. For bacterial expression, the same cleaved PCR products encoding Pim-1 or Pim-2 were ligated into a modified E. coli expression vector pET28(a) cleaved with BamHI and EcoRI. Amino-terminal hexahistidine tags followed by a thrombin cleavage site were previously added to the vectors using standard methods of molecular biology.
(§2) Recombinant baculoviruses expressing Pim-1 or Pim-2 were made using standard methods (Fastbac manual, Invitrogen, Carlsbad, Calif.). […] Cells were harvested by centrifugation and frozen at −80 C. For E. coli expression, cells carrying pET28-His6-Th-Pim-1 or pET28-His6-Th-Pim-2 were picked from a single colony and grown o/n in LB media. The o/n culture was used to inoculate a 2 liter flask with 500 mL media. This was grown o/n and used to inoculate 15-20 liters of Terrific Broth in a New Brunswick Scientific fermentor. The E. coli were grown at 37° C. to and OD600 >1.6. The temperature was dropped to 18° C. and o/n expression was induced with 0.5 mM IPTG. Cells were harvested by centrifugation and frozen at −80° C.
(§3) The slurry was centrifuged at 1,000×g for 5 min, the supernatant decanted, and the resin suspended in 40 mL of lysis wash buffer (lysis buffer at 0.75 M NaCl). This step was repeated 3× and the resin was transferred to a 2.5 cm glass column. Ten column volumes of wash buffer (0.05 M HEPES, pH 8.0, 0.1 M NaCl, 0.01 M 2-mercaptoethanol, 10%(w/v) glycerol) were applied to the resin followed by 10 column volumes of elution buffer (0.05 M HEPES, pH 8.0, 0.25 M NaCl, 0.01 M 2-mercaptoethanol, 10%(w/v) glycerol, 0.1 M imidazole). Fractions were analyzed by SDS-PAGE and those containing the protein of interest were pooled and concentrated. The concentrated protein was applied to an Amersham Superdex 75 (XK 26/60) column equilibrated in 0.025 M Tris-HCl, pH 7.5, 0.1 M NaCl, 0.01 M 2-mercaptoethanol, 10% (w/v) glycerol. […] Fractions containing the monomeric protein of interest were pooled, concentrated to ˜2 mg/mL, and stored at −80° C.
(§4) The phosphorylation of biotinylated-BAD (S112) peptide by full length recombinant Pim-1, Pim-2, or Pim-3 protein was detected with streptavidin:Allophycocyanin (APC) conjugate and a europium (Eu) labeled antibody directed against phosphorylated-BAD (S112). […] The fluorescence is directly proportional to the amount of phosphorylated BAD peptide present in the reaction. […] A reference compound was included on each assay plate in order to validate that plate; on one plate of every assay run, two additional reference compounds were included. The final buffer conditions were as follows: 60 mM Hepes, pH 7.0, 0.05% BSA, 2 mM DTT. Incubations were carried out at RT (22° C.) for 2 h for Pim-1, 1 hour and 30 min for Pim-3, and 45 min for Pim-2. The reaction was stopped by the addition of 3 mM EDTA, and fluorescence was measured by an HTRF® Rubystar microplate reader. For each plate, percent of control (POC) values were calculated for each well. Values for the IC50 IP were estimated using a standard 4-parameter logistic model.

Pim-2 = Pim-2 (Homo sapiens (Human), UniProt Q9P1W9); assay: Pim enzyme assay (HTRF, 96-well), Pim-2; assay type: biochemical; conditions: full length recombinant Pim-2, biotinylated-BAD (S112) peptide, 10-point curve, 45 min RT, read-out: Pim-2 IC50 IP
Description: as §1, §2, §3, §4

[1] = tested on: KMS-12-BM myeloma cell line; assay: Pim KMS-12 cell assay (phospho-BAD S112 / total BAD, MSD); conditions: Homo sapiens, KMS-12-BM, read-out: KMS-12-BM IC50 IP, KMS-12-BM cells, phospho-BAD (S112) vs total BAD, 1 hour 50 min with compound

Pim-1, sequence (P11309 whole entry): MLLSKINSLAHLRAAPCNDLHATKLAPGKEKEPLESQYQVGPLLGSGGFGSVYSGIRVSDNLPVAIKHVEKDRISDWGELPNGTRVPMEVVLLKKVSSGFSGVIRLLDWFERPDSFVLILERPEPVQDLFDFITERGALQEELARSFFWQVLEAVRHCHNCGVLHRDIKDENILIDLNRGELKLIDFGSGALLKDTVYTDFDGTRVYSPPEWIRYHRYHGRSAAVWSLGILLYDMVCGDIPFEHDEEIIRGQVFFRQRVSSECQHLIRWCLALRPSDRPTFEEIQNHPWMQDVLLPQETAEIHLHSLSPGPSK
Pim-2, sequence (Q9P1W9 whole entry): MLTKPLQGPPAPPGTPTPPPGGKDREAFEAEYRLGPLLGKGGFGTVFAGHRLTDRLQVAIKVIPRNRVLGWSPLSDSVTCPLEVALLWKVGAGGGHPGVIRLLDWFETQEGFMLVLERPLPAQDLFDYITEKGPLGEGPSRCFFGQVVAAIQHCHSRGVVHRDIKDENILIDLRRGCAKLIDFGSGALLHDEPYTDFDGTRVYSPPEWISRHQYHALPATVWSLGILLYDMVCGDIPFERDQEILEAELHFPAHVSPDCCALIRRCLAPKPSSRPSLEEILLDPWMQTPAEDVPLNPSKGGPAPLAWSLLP

O=C1NCC(Cc2ccccc2)c2[nH]c(-c3cccc4cccnc34)cc21 (racemic) [Example 119, rac-7-benzyl-2-(quinolin-8-yl)-6,7-dihydro-1H-pyrrolo[3,2-c]pyridin-4(5H)-one]
IC50 (Pim-1): 39.4 nM
IC50 (Pim-2): 206 nM

CC1Cc2[nH]c(-c3cccc4ccc(Nc5ccccc5)nc34)cc2C(=O)N1 (single isomer, unassigned) [Example 33, 6-methyl-2-(2-(phenylamino)quinolin-8-yl)-6,7-dihydro-1H-pyrrolo[3,2-c]pyridin-4(5H)-one]
IC50 (Pim-2): 35.3 nM
IC50 [1]: 4100 nM

Cc1nc2cccc(-c3cc4c([nH]3)CCNC4=O)c2nc1F [Example 126, 2-(3-fluoro-2-methylquinoxalin-5-yl)-6,7-dihydro-1H-pyrrolo[3,2-c]pyridin-4(5H)-one]
IC50 (Pim-2): > 1000 nM

Cc1nc2cccc(-c3cc4c([nH]3)CCNC4=O)c2nc1NC1CCC(=O)N(C)C1 (racemic) [Example 195, rac-2-(2-methyl-3-((1-methyl-6-oxopiperidin-3-yl)amino)quinoxalin-5-yl)-6,7-dihydro-1H-pyrrolo[3,2-c]pyridin-4(5H)-one 2,2,2-trifluoroacetate]
IC50 (Pim-2): 177 nM

O=C1NCCc2[nH]c(-c3cccc4ccc(OC5CCNCC5)nc34)cc21 [Example 81, 2-(2-(piperidin-4-yloxy)quinolin-8-yl)-6,7-dihydro-1H-pyrrolo[3,2-c]pyridin-4(5H)-one]
IC50 (Pim-1): 6 nM
IC50 (Pim-2): 95.6 nM

C=C(c1ccccc1)c1ccc2cccc(-c3cc4c([nH]3)CCNC4=O)c2n1 [Example 113, 2-(2-(1-phenylvinyl)quinolin-8-yl)-6,7-dihydro-1H-pyrrolo[3,2-c]pyridin-4(5H)-one]
IC50 (Pim-1): 4.7 nM
IC50 (Pim-2): 8.1 nM

COc1ccc(Cl)cc1-c1ccc2cccc(-c3cc4c([nH]3)CCNC4=O)c2n1 [Example 88, 2-(2-(5-chloro-2-methoxyphenyl)quinolin-8-yl)-6,7-dihydro-1H-pyrrolo[3,2-c]pyridin-4(5H)-one]
IC50 (Pim-1): 42.1 nM
IC50 (Pim-2): 166 nM

O=C1NCCc2[nH]c(-c3cccc4ccc(Oc5cccc(O)c5)nc34)cc21 [Example 109, 2-(2-(3-hydroxyphenoxy)quinolin-8-yl)-6,7-dihydro-1H-pyrrolo[3,2-c]pyridin-4(5H)-one]
IC50 (Pim-2): 15.8 nM
IC50 [1]: 8810 nM

O=c1[nH]cnc2[nH]c(-c3cccc4ccc(Oc5ccccc5)nc34)cc12 [Example 17, 6-(2-phenoxyquinolin-8-yl)-3H-pyrrolo[2,3-d]pyrimidin-4(7H)-one]
IC50 (Pim-1): 34 nM
IC50 (Pim-2): 80.2 nM

O=c1[nH]ccc2[nH]c(-c3cccc4ccc(Oc5ccccc5)nc34)cc12 [Example 225, 2-(2-phenoxyquinolin-8-yl)-1H-pyrrolo[3,2-c]pyridin-4(5H)-one]
IC50 (Pim-1): 15.9 nM
IC50 (Pim-2): 43.7 nM

O=C1NCCc2[nH]c(-c3cccc4ccc(-c5c(F)cccc5F)nc34)cc21 [Example 231, 2-(2-(2,6-difluorophenyl)quinolin-8-yl)-6,7-dihydro-1H-pyrrolo[3,2-c]pyridin-4(5H)-one]
IC50 (Pim-1): 8.1 nM
IC50 (Pim-2): 91.9 nM

Cc1nc2cccc(-c3cc4c([nH]3)CCNC4=O)c2nc1N[C@H](C)C(N)=O [Example 128, (R)-2-((3-methyl-8-(4-oxo-4,5,6,7-tetrahydro-1H-pyrrolo[3,2-c]pyridin-2-yl)quinoxalin-2-yl)amino)propanamide]
IC50 (Pim-1): 204 nM
IC50 (Pim-2): 222 nM

O=C1NCCc2[nH]c(-c3cccc4ccc(Oc5ccc(Cl)cc5)nc34)cc21 [Example 18, 2-(2-(4-chlorophenoxy)quinolin-8-yl)-6,7-dihydro-1H-pyrrolo[3,2-c]pyridin-4(5H)-one]
IC50 (Pim-1): 15.5 nM
IC50 (Pim-2): 44.9 nM

O=C1NCCc2[nH]c(-c3cccc4cnc(Oc5ccccc5)nc34)cc21 [Example 236, 2-(2-phenoxyquinazolin-8-yl)-6,7-dihydro-1H-pyrrolo[3,2-c]pyridin-4(5H)-one 2,2,2-trifluoroacetate]
IC50 (Pim-1): 34.2 nM
IC50 (Pim-2): 40.2 nM

Cc1nc2cccc(-c3cc4c([nH]3)CCNC4=O)c2nc1N1CCOCC1 [Example 133, 2-(2-methyl-3-morpholinoquinoxalin-5-yl)-6,7-dihydro-1H-pyrrolo[3,2-c]pyridin-4(5H)-one]
IC50 (Pim-1): 93.4 nM
IC50 (Pim-2): 99.8 nM

O=C1NCCc2[nH]c(-c3cccc4ccc(O[C@@H]5CCCNC5)nc34)cc21 [Example 89, (R)-2-(2-(piperidin-3-yloxy)quinolin-8-yl)-6,7-dihydro-1H-pyrrolo[3,2-c]pyridin-4(5H)-one]
IC50 (Pim-1): 46.6 nM
IC50 (Pim-2): 340 nM

O=C1NCCc2[nH]c(-c3cccc4ccc(Oc5cccc(Cl)c5)nc34)cc21 [Example 41, 2-(2-(3-chlorophenoxy)-8-quinolinyl)-1,5,6,7-tetrahydro-4H-pyrrolo[3,2-c]pyridin-4-one]
IC50 (Pim-1): 13.6 nM
IC50 (Pim-2): 68 nM

O=C1NCCn2cc(-c3cccc4ccc(C(=O)N5CCOCC5)nc34)cc21 [Example 167, 7-(2-(morpholine-4-carbonyl)quinolin-8-yl)-3,4-dihydropyrrolo[1,2-a]pyrazin-1(2H)-one]
IC50 (Pim-1): 671 nM
IC50 (Pim-2): 667 nM

O=C1NCCc2[nH]c(-c3cccc4ccc(Sc5ccccc5)nc34)cc21 [Example 5, 2-(2-(phenylthio)quinolin-8-yl)-6,7-dihydro-1H-pyrrolo[3,2-c]pyridin-4(5H)-one]
IC50 (Pim-2): 11.5 nM
IC50 [1]: 5700 nM

CCCNc1nc2c(-c3cc4c([nH]3)CCNC4=O)cccc2nc1C [Example 191, 2-(2-methyl-3-(propylamino)-5-quinoxalinyl)-1,5,6,7-tetrahydro-4H-pyrrolo[3,2-c]pyridin-4-one]
IC50 (Pim-2): 6.6 nM
IC50 [1]: 376 nM

CC(Oc1ccc2cccc(-c3cc4c([nH]3)CCNC4=O)c2n1)C(F)(F)F (racemic) [Example 79, rac-2-(2-((1,1,1-trifluoropropan-2-yl)oxy)quinolin-8-yl)-6,7-dihydro-1H-pyrrolo[3,2-c]pyridin-4(5H)-one]
IC50 (Pim-2): 204 nM

CC1CNC(=O)c2cc(-c3cccc4ccc(Cl)nc34)[nH]c21 (racemic) [Example 27, rac-2-(2-chloroquinolin-8-yl)-7-methyl-6,7-dihydro-1H-pyrrolo[3,2-c]pyridin-4(5H)-one]
IC50 (Pim-2): 366 nM

CC1Cc2[nH]c(-c3cccc4ccc(Nc5ccccc5)nc34)cc2C(=O)N1 (single isomer, unassigned) [Example 34, 6-methyl-2-(2-(phenylamino)quinolin-8-yl)-6,7-dihydro-1H-pyrrolo[3,2-c]pyridin-4(5H)-one]
IC50 (Pim-2): 73.3 nM

O=C1NCCc2[nH]c(-c3cccc4ccc(C5(c6ccccc6)CC5)nc34)cc21 [Example 114, 2-(2-(1-phenylcyclopropyl)quinolin-8-yl)-6,7-dihydro-1H-pyrrolo[3,2-c]pyridin-4(5H)-one]
IC50 (Pim-2): 8.9 nM
IC50 [1]: 4180 nM

CC1Cc2[nH]c(-c3cccc4ccc(Nc5ccccc5)nc34)cc2C(=O)N1 (racemic) [Example 237, rac-6-methyl-2-(2-(phenylamino)quinolin-8-yl)-6,7-dihydro-1H-pyrrolo[3,2-c]pyridin-4(5H)-one]
IC50 (Pim-2): 34.2 nM
IC50 [1]: 6580 nM

CC1CNC(=O)c2cc(-c3cccc4ccc(Oc5ccccc5)nc34)[nH]c21 (racemic) [Example 28, rac-7-methyl-2-(2-phenoxyquinolin-8-yl)-6,7-dihydro-1H-pyrrolo[3,2-c]pyridin-4(5H)-one]
IC50 (Pim-2): 61 nM
